Results from patent US20230233430A1, “POLYOL ESTERS FROM BIOBASED FEEDSTOCKS FOR USE AS EMOLLIENT IN PERSONAL CARE APPLICATIONS” (priority 2020, published 2023).

Assay: Decomposition temperature by thermogravimetric analyser (TGA)
Assay type: physicochemical
Details: reactants
Description: The decomposition temperature of the reactants and polyol ester of different grades (PE25, PE50 and PE100) were determined using a thermogravimetric analyser (TGA). TGA is a method of thermal analysis by measuring the changes in the mass of a sample over increasing temperatures.

Decomposition temperature [°C]	Amount of sample decomposed within the temperature range [wt. %]	SMILES
178.7 to 220.9	–	OCC(O)CO [Glycerin]
247.9 to 283.9	95.24	O=C(O)CCCCCCCCC(=O)O [Sebacic acid]
150.9 to 193.3	–	CCCCCCCC(=O)O [Caprylic acid]
